Results on two molecules are retold here after publication PMC12652428, “In Vitro and In Silico Evaluation of a Novel Multifunctional Cyclic Peptide with Antioxidant, Tyrosinase-Inhibitory, and Extracellular Matrix-Modulating Activities” (International Journal of Molecular Sciences, 2025).

For one assay, the target named is mushroom tyrosinase. The assay can be described thus: Tyrosinase inhibition assay. It counts as biochemical. On the procedure:
To assess tyrosinase inhibitory activity, serial dilutions of the synthesized peptide and the positive control, β-arbutin, were prepared. In a 96-well plate, 10 μL of sample solution was mixed with 110 μL of 0.10 M sodium phosphate buffer (pH 6.5), followed by the addition of 10 μL of mushroom tyrosinase solution (1500 U/mL) and 20 μL of 1.50 mM L-tyrosine. The reaction mixture was then incubated at 37 °C for 10 min. The absorbance was measured at an appropriate wavelength (475 nm) using a microplate reader and the percentage of tyrosinase inhibition was calculated using Equation (3).
Tyrosinase inhibition (%):(3) 100−b−b^′/a−a^′×100
(§1) a: Absorbance after reaction of stock solution.
(§2) b: Absorbance after reaction of sample solution.
a′, b′: Absorbance measured by substituting the buffer for mushroom tyrosinase.

Another assay has as its system MMP-1. The assay can be described thus: UV-induced MMP-1 expression inhibition (ELISA) in human dermal fibroblasts CCD-986sk. It counts as cell-based. On the procedure: To evaluate the inhibitory effect on MMP-1 expression, TGF-β1 (10 ng/mL) was used as the positive control. CCD-986sk cells were seeded into 24-well culture plates at a density of 1.5 × 10^4 cells/well and cultured for 24 h in IMDM supplemented with 10% FBS and 1% penicillin–streptomycin. The cells were then incubated in serum-free IMDM for 6 h to induce starvation, washed with 1 mL of DPBS, and irradiated with UV (5 J/cm^2). UV irradiation (5 J/cm^2) was performed under non-cytotoxic conditions previously reported to induce MMP-1 expression. The test samples were diluted in serum-free IMDM, applied to the cells, and incubated for 48 h.
MMP-1 Expression Inhibition (%):(4) 100−b/a×100
(§3) a: Expression of the corrected untreated group.
(§4) b: Expression of the corrected sample treatment group.
(§5) Protein content was measured using a Pierce BCA Protein Assay kit. After cell culture, 20 μL of the culture medium was mixed with 200 μL of the Pierce BCA Protein Assay reagent mixture and incubated at 37 °C for 30 min. The absorbance was then measured at 570 nm. The protein concentration was determined using an Albumin Standard as a reference.

The subject of the next assay is type I procollagen. The assay can be described thus: Type I procollagen expression (ELISA) in human fibroblasts. Type of assay: cell-based. How it is done:
ELISA was performed using a Type I Procollagen C-Peptide EIA Kit. Antibody-POD Conjugate solution (100 μL/well) was dispensed into the provided well strips, followed by the addition of 20 μL/well of standard solution or sample. After mixing, the plates were incubated at 37 °C for 3 h. Following incubation, the supernatants were discarded and wells were washed four times with wash buffer. Subsequently, 100 μL/well of Substrate Solution (TMBZ) was added and incubated at room temperature for 15 min, after which 100 μL/well of stop solution was added to terminate the reaction. Absorbance was measured at 450 nm using a multiplate reader. The expression levels of type I procollagen were compared and stimulation rate was calculated according to Equation (5).
Type I Procollagen Expression Promotion Rate (%):(5) 100−b/a×100
as §3, §4, §5

A short description of assay [1]: DPPH radical-scavenging assay. On the procedure:
To assess the antioxidant activity of the test samples, serial dilutions of the synthesized peptides were prepared, using ascorbic acid as a positive control. Each reaction mixture consisted of 12.5 μL of the sample solution, 50 μL of ethanol, and 62.5 μL of 0.10 mM DPPH solution. The mixtures were incubated for 30 min at 4 °C in the dark. After the reaction, the absorbance was measured at 520 nm using a multimode microplate reader. The free radical-scavenging activity (%) was calculated using Equation (2).
Radical-scavenging activity (%):(2) 100−b−b^′/a−a^′×100
as §1, §2
a′, b′: Absorbance measured by substituting the buffer for 0.10 mM DPPH.
A general note: Loss of DPPH colour is used to gauge radical scavenging.

What is called IC50 is the point on the concentration scale where inhibition reaches its midpoint.

The structures appear in SMILES notation. Where a SMILES comes first, the peptide text is derived from it.

`OC[C@H]1O[C@@H](Oc2ccc(O)cc2)[C@H](O)[C@@H](O)[C@@H]1O` [β-arbutin, reference compound]: the “tyrosinase inhibition IC50 (positive control)” value at mushroom tyrosinase (tested 31.25 to 500 μg/mL, L-tyrosine substrate, pH 6.5, 37 °C, 10 min, 475 nm) amounted to 160.12 µg/mL.

On to `N=C(N)NCCC[C@@H]1NC(=O)[C@H](CO)NC(=O)CNC(=O)[C@H](Cc2ccc(O)cc2)NC(=O)[C@H](CS)NC1=O` [CR5, cyclic CYGSR] (cyclo(CYGSR)), for which the “inhibition of MMP-1 expression” value with MMP-1 (400 μg/mL, UV 5 J/cm^2, 48 h, CCD-986sk, ELISA, vs UV-treated control) turned out to be 73.55%. Besides, the “MMP-1 inhibition compared with TGF-β1” value in the assay on MMP-1 (400 µg/mL, same experimental conditions, TGF-β1 10 ng/mL) is listed as “stronger efficacy than TGF-β1”. The “UV-induced MMP-1 expression” value in the assay on MMP-1 (200–400 μg/mL, vs UV-treated control, p < 0.05) is on record as “significantly reduced MMP-1 expression”. In addition, the “MMP-1 expression inhibition IC50” value in the assay with MMP-1 (n = 5, UV 5 J/cm^2, 48 h, CCD-986sk, ELISA) worked out at 261.3 ± 12.0 µg/mL. Besides, the “type I procollagen expression, higher than positive control TGF-β1” value with type I procollagen (400 μg/mL, compared with TGF-β1) was “approximately 30.12%”. For the same molecule, in the assay with type I procollagen (400 μg/mL, human fibroblasts, ELISA (Procollagen Type I C-Peptide EIA), p < 0.05), the “increase in type I procollagen expression vs untreated control” value is reported as “approximately 44.68%”. Further, the “type I procollagen increase compared with TGF-β1” value in the assay with type I procollagen (400 µg/mL, same experimental conditions) is “stronger efficacy than TGF-β1”. Also, the “type I procollagen expression” value in the assay with type I procollagen (100–400 μg/mL, p < 0.05) is “promoted type I procollagen expression in a concentration-dependent manner”. In assay [1] (200 μg/mL, 30 min at 4 °C in the dark, 520 nm), the “DPPH radical scavenging rate” value is reported as 83.18%. Moreover, the “DPPH scavenging, concentration dependence” value in assay [1] (3.13 to 200 μg/mL, p < 0.05) is listed as “concentration-dependent scavenging effects”. For the same molecule, the “DPPH radical scavenging activity” value in assay [1] (concentrations above 25 μg/mL, 30 min at 4 °C in the dark, 520 nm) is on record as “more than 50%”. The molecule also showed a tyrosinase inhibition rate in the assay on mushroom tyrosinase (800 μg/mL, L-tyrosine substrate, pH 6.5, 37 °C, 10 min, 475 nm) of 97.79%. Also, the “tyrosinase inhibition, concentration dependence” value in the assay on mushroom tyrosinase (12.50 to 800 μg/mL, p < 0.05) was “concentration-dependent inhibition”. The “tyrosinase inhibition compared with β-arbutin” value in the assay with mushroom tyrosinase (comparable concentrations) is recorded as “stronger tyrosinase inhibition than β-arbutin”. For the same molecule, half-maximal inhibition against mushroom tyrosinase (n = 3, L-tyrosine substrate, pH 6.5, 37 °C, 10 min, 475 nm, molar value printed beside 104.2 µg/mL) (IC50) required 184 ± 9.4 µM. Further, in the assay on mushroom tyrosinase (n = 3, L-tyrosine substrate, pH 6.5, 37 °C, 10 min, 475 nm, tested 12.50 to 800 μg/mL), the “tyrosinase inhibition IC50” value was 104.2 ± 5.3 µg/mL.
